Columns and labels:
B. subtilis 168 [1] = assay: fitness (endpoint OD595 vs no drug) (fraction); higher = more growth
Method in brief: (§1)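 Background-subtracted growth curves were the basis for fitness, taken as the optical density at entry into stationary phase over the robust mean of no-drug control wells. A cap of 1 was applied. The curves came from OD595 readings every 30 min for 14 h at 37 °C, in 384-well plates seeded at OD595 0.01 with 30 µl, or 55 µl for S. pneumoniae.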

S. pneumoniae D39V [2] = assay: as above
Method in brief: as §1

S. aureus Newman [3] = assay: as above
Method in brief: as §1

B. subtilis 168 [4] = assay: Bliss interaction score (quartile over a dose matrix) (fitness difference); higher = more antagonism (negative = synergy)
Method in brief: (§2)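 The Bliss score was calculated by subtracting the expected fitness, the product of single-drug values, from the observed fitness. OD595 at entry into stationary phase, over the plate's robust no-drug mean and capped at 1, served as the fitness readout. Single-drug values were inferred from combination data, and scores are summarised by quartiles across technical, biological and donor/recipient replicates.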

S. pneumoniae D39V [5] = assay: as above
Method in brief: as §2

S. aureus Newman [6] = assay: as above
Method in brief: as §2

S. aureus DSM 20231 = assay: as above
Method in brief: as §2
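Throughout, for Bliss interaction score (quartile over a dose matrix): first quartile when negative (synergy) and third quartile when positive (antagonism).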

Cn1c2cccc(=O)c-2nc2ccccc21 [Pyocyanin] + CN(C)c1cc(NC(=O)CNC(C)(C)C)c(O)c2c1C[C@H]1C[C@H]3[C@H](N(C)C)C(O)=C(C(N)=O)C(=O)[C@@]3(O)C(O)=C1C2=O [Tigecycline]
fitness
Settings	first compound 0.325 µg/mL	first compound 0.65 µg/mL	first compound 1.25 µg/mL	first compound 1.3 µg/mL	first compound 2.5 µg/mL	first compound 5 µg/mL
B. subtilis 168 [1], partner 0.039 µg/mL	–	–	0.956	–	0.903	0.786
B. subtilis 168 [1], partner 0.078 µg/mL	–	–	0.953	–	0.876	0.747
B. subtilis 168 [1], partner 0.156 µg/mL	–	–	0.935	–	0.863	0.762
S. aureus Newman [3], partner 0.039 µg/mL	–	–	0.879	–	0.81	0.426
S. aureus Newman [3], partner 0.078 µg/mL	–	–	0.854	–	0.808	0.412
S. aureus Newman [3], partner 0.156 µg/mL	–	–	0.886	–	0.807	0.401
S. pneumoniae D39V [2], partner 0.65 µg/mL	0.965	0.975	–	0.697	–	–
S. pneumoniae D39V [2], partner 1.3 µg/mL	≥ 1	0.966	–	0.708	–	–
S. pneumoniae D39V [2], partner 2.6 µg/mL	0.979	0.928	–	0.668	–	–

fitness, B. subtilis 168 [1], one replicate
Settings	first compound 1.25 µg/mL	first compound 2.5 µg/mL	first compound 5 µg/mL
partner 0.125 µg/mL	0.964	0.97	0.955
partner 0.25 µg/mL	0.865	0.847	0.882
partner 0.5 µg/mL	0.91	0.867	0.801

Settings	Bliss interaction score
B. subtilis 168 [4]	-0.04
S. aureus DSM 20231	-0.0925
S. aureus Newman [6]	0.0936
S. pneumoniae D39V [5]	0.0539

CNC(C)C1CCC(N)C(OC2C(N)CC(N)C(OC3OCC(C)(O)C(NC)C3O)C2O)O1 (centres undefined) [Gentamicin] + Cc1ncc([N+](=O)[O-])n1CCO [Metronidazole]
fitness, main component drawn
Settings	partner 0.625 µg/mL	partner 0.781 µg/mL	partner 1.073 µg/mL	partner 1.25 µg/mL	partner 1.562 µg/mL	partner 2.145 µg/mL	partner 2.5 µg/mL	partner 3.124 µg/mL	partner 4.29 µg/mL	partner 5 µg/mL
B. subtilis 168 [1], first compound 0.0625 µg/mL	0.897	–	–	0.926	–	–	0.922	–	–	–
B. subtilis 168 [1], first compound 0.25 µg/mL	0.0729	–	–	–	–	–	0.0383	–	–	–
S. aureus Newman [3], first compound 0.5 µg/mL	0.995	0.92	–	0.979	0.911	–	≥ 1	0.913	–	–
S. aureus Newman [3], first compound 1 µg/mL	≥ 1	≥ 1	–	0.974	≥ 1	–	0.986	≥ 1	–	–
S. aureus Newman [3], first compound 2 µg/mL	≥ 1	≥ 1	–	0.981	≥ 1	–	≥ 1	≥ 1	–	–
S. pneumoniae D39V [2], first compound 2 µg/mL	–	–	0.983	0.985	–	0.864	≥ 1	–	0.8	0.996
S. pneumoniae D39V [2], first compound 4 µg/mL	–	–	0.976	0.992	–	0.987	≥ 1	–	0.827	0.986
S. pneumoniae D39V [2], first compound 8 µg/mL	–	–	0.98	0.955	–	0.96	0.959	–	0.942	0.959

fitness, S. aureus Newman [3], one replicate, main component drawn
Settings	first compound 0.375 µg/mL	first compound 0.75 µg/mL	first compound 1.5 µg/mL
partner 0.625 µg/mL	0.94	0.944	0.951
partner 1.25 µg/mL	≥ 1	≥ 1	≥ 1
partner 2.5 µg/mL	≥ 1	≥ 1	≥ 1

main component drawn
Settings	Bliss interaction score
B. subtilis 168 [4]	-0.0531
S. aureus DSM 20231	0.0225
S. aureus Newman [6]	0.0412
S. pneumoniae D39V [5]	0.0587
